Assay [1] has as its target T1, COX-1 (Homo sapiens, UniProt P23219). In words: Human whole blood assay, COX-1 (clotting-induced TxB2 production). It is filed as cell-based. Also noted: platelets in whole blood contain a large amount of the COX-1 enzyme; endogenous in cells; host or cells: platelets in fresh human whole blood without anticoagulant. The note with it: clotting-induced TxB2, 1 hour at 37°C. Here is the method:
(§1) Human whole blood provides a protein and cell-rich milieu appropriate for the study of biochemical efficacy of anti-inflammatory compounds such as selective COX-2 inhibitors. […] This is consistent with the observation that COX-2 inhibitors have no effect on PGE2 production in normal blood. These inhibitors are active only after incubation of human whole blood with LPS, which induces COX-2. This assay can be used to evaluate the inhibitory effect of selective COX-2 inhibitors on PGE2 production. As well, platelets in whole blood contain a large amount of the COX-1 enzyme. Immediately following blood clotting, platelets are activated through a thrombin-mediated mechanism. […] Thus, the effect of test compounds on TxB2 levels following blood clotting can be examined and used as an index for COX-1 activity. Therefore, the degree of selectivity by the test compound can be determined by measuring the levels of PGE2 after LPS induction (COX-2) and TxB2 following blood clotting (COX-1) in the same assay. Fresh blood is collected into vacutainers containing no anticoagulants. […] In the assays, inhibition is determined by measuring the amount of a prostaglandin synthesized in the presence and absence of a putative inhibitor. […]

Assay [2] deals with T1, COX-1. In words: Whole cell assay for COX-1 using CHO transfected cell line CHO[hCOX-1]. Also noted: platelets in whole blood contain a large amount of the COX-1 enzyme; endogenous in cells; host or cells: platelets in fresh human whole blood without anticoagulant. In kind it is cell-based. The note with it: CHO[hCOX-1] cells, 0.5 µM AA, PGE2. Here is the method: (§2) Chinese hamster ovary (CHO) cell lines which have been stably transfected with an eukaryotic expression vector pCDNAIII containing either the human COX-1 or COX-2 cDNA's are used for the assay. These cell lines are referred to as CHO [hCOX-1] and CHO [hCOX-2], respectively. For cyclooxygenase assays, CHO[hCOX-1] cells from suspension cultures and CHO[hCOX-2] cells prepared by trypsinization of adherent cultures are harvested by centrifugation (300 x g, 10 min) and washed once in HBSS containing 15 mM HEPES, pH 7.4, and resuspended in HBSS, 15 mM HEPES, pH 7.4, at a cell concentration of 1.5 x 10^6 cells/ml. Drugs to be tested are dissolved in DMSO to 66.7-fold the highest test drug concentration. Compounds are typically tested at 8 concentrations in duplicate using serial 3-fold serial dilutions in DMSO of the highest drug concentration. […] Cyclooxygenase activity in the absence of test compounds is determined as the difference in PGE2 levels of cells challenged with arachidonic acid versus the PGE2 levels in cells mock-challenged with ethanol vehicle. Inhibition of PGE2 synthesis by test compounds is calculated as a percentage of the activity in the presence of drug versus the activity in the positive control samples. […] In the assays, inhibition is determined by measuring the amount of a prostaglandin synthesized in the presence and absence of a putative inhibitor. […]

In the next assay the test system is Rat Paw edema. In words: Rat paw edema assay (carrageenan). It is filed as in vivo, Male Sprague-Dawley rats. The note with it: po, 1 hr before carrageenan, paw volume 3 hr later. The method, then: Male Sprague-Dawley rats (150-200 g) are fasted overnight and are given po, either vehicle (1% methocel or 5% Tween 80) or a test compound. One hr later, a line is drawn using a permanent marker at the level above the ankle in one hind paw to define the area of the paw to be monitored. The paw volume (V0) is measured using a plethysmometer (Ugo-Basile, Italy) based on the principle of water displacement. The animals are then injected subplantarly with 50 µl of 1% carrageenan solution in saline (FMC Corp, Maine) into the paw using an insulin syringe with a 25-gauge needle (i.e. 500 µg carrageenan per paw). Three hr later, the paw volume (V3) is measured and the increases in paw volume (V3 - VO) are calculated. The animals are sacrificed by CO2 asphyxiation and the absence or presence of stomach lesions scored. Data is compared with the vehicle-control values and percent inhibition calculated. All treatment groups are coded to eliminate observer bias.
Compounds of the present invention are inhibitors of COX-2 and are thereby useful in the treatment of COX-2 mediated diseases as enumerated above. The activities of compound A against cyclooxygenase may be seen in the representative results shown below in the Table. In the assays, inhibition is determined by measuring the amount of a prostaglandin synthesized in the presence and absence of a putative inhibitor. […]
Background: Carrageenan injected into the paw causes an acute inflammation.

Assay [3] addresses T2, COX-2 (Homo sapiens, UniProt P35354).
T2 construct: endogenous in cells; host or cells: fresh heparinized human whole blood from volunteers, LPS-stimulated
T2 sequence (P35354 18-604): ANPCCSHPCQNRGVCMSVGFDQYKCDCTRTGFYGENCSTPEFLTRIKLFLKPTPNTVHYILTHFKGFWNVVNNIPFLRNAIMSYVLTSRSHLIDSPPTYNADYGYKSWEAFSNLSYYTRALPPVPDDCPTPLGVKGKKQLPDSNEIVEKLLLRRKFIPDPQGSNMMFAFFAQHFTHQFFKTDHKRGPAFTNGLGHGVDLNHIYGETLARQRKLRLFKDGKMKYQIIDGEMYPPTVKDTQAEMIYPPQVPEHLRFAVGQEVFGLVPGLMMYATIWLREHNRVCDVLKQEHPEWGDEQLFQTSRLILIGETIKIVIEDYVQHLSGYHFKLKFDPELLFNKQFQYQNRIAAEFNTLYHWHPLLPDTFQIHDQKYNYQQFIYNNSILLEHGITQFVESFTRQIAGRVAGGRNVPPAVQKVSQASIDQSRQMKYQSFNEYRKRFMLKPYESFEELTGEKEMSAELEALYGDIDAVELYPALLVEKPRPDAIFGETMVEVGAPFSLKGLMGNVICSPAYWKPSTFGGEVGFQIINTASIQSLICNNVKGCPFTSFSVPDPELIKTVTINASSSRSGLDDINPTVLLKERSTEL
In words: Human whole blood assay, COX-2 (LPS-induced PGE2 production). In kind it is cell-based. The note with it: LPS-induced PGE2, 24 hours at 37°C. Here is the method:
as §1, with “in heparinized tubes by venipuncture from both male and female volunteers. The subjects have” for “into vacutainers containing”, “apparent inflammatory conditions and have not taken any NSAIDs for at least 7 days prior to blood collection.” for “anticoagulants.”

In assay [4] the target is T2, COX-2. In words: Whole cell assay for COX-2 using CHO transfected cell line CHO[hCOX-2]. It is filed as cell-based. The note with it: CHO[hCOX-2] cells, 10 µM AA, PGE2. Here is the method:
as §2

Assay [5] concerns the target T1, COX-1. Description: Assay of COX-1 activity from U937 cell microsomes. It is filed as biochemical. Set-up: endogenous in cells; host or cells: U937 cells, 100,000 x g microsomal fraction. The note with it: PGE2. The method, then: U 937 cells are pelleted by centrifugation at 500 x g for 5 min and washed once with phosphate-buffered saline and repelleted. Cells are resuspended in homogenization buffer consisting of 0.1 M Tris-HCl, pH 7.4, 10 mM EDTA, 2 µg/ml leupeptin, 2 µg/ml soybean trypsin inhibitor, 2 µg/ml aprotinin and 1 mM phenyl methyl sulfonyl fluoride. The cell suspension is sonicated 4 times for 10 sec and is centrifuged at 10,000 x g for 10 min at 4° C. The supernatant is centrifuged at 100,000 x g for 1 hr at 4° C. The 100,000 x g microsomal pellet is resuspended in 0.1 M Tris-HCl, pH 7.4, 10 mM EDTA to approximately 7 mg protein/ml and stored at -80° C. Microsomal preparations are thawed immediately prior to use, subjected to a brief sonication, and then diluted to a protein concentration of 125 µg/ml in 0.1 M Tris-HCl buffer, pH 7.4 containing 10 mM EDTA, 0.5 mM phenol, 1 mM reduced glutathione and 1 µM hematin. Assays are performed in duplicate in a final volume of 250 µl. […] Samples are neutralized with 25 µl of 1 N NaOH prior to quantitation of PGE2 content by radioimmunoassay (Dupont-NEN or Amersham assay kits). […] In the assays, inhibition is determined by measuring the amount of a prostaglandin synthesized in the presence and absence of a putative inhibitor. […]

Data on two compounds can be found in patent EP0863134A1, “2-(3,5-difluorophenyl)-3-(4-(methyl-sulfonyl)phenyl)-2-cyclopenten-1-one useful as an inhibitor of cyclooxygenase-2” (MERCK FROSST CANADA INC., priority 1997, dated 1998).

For orientation: pIC50 means −log10 of the IC50, conventionally taken in molar units. In general, ED50 refers to the midpoint of the dose-response relation.

Structures are written as SMILES. pIC50: −log10 of the molar value.

T1 sequence (P23219 24-599): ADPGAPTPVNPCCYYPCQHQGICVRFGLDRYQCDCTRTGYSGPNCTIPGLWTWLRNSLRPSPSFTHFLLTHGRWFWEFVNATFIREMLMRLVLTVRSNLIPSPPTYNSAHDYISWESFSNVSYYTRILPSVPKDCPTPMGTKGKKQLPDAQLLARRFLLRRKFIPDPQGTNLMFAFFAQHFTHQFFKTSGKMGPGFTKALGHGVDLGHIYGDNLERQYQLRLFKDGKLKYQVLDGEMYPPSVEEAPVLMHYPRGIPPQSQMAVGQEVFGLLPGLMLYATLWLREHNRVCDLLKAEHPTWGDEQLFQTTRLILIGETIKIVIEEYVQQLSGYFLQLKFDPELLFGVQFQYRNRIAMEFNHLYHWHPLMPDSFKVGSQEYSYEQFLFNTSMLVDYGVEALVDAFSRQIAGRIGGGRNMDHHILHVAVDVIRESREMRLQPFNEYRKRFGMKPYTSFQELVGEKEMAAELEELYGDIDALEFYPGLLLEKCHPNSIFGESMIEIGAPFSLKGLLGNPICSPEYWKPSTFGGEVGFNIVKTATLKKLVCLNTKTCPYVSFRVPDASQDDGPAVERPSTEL

`CS(=O)(=O)c1ccc(C2=C(c3cc(F)cc(F)c3)C(=O)CC2)cc1` [Compound A, 2-(3,5-difluorophenyl)-3-(4-(methylsulfonyl)phenyl)-2-cyclopenten-1-one]: the pIC50 against COX-1 [1] was 4.11; against COX-1 [2], below 4.30; at COX-2 [3] it was 6.35; at COX-2 [4], 7.52; against COX-1 [5] it was 4.96. Moreover, the 50% effect level in the assay on Rat Paw edema (ED50) was put at a dose of 2.6 mg/kg.

Regarding `CS(=O)(=O)c1ccc(C2=C(c3ccc(F)cc3)C(=O)CC2)cc1` [Compound B], the pIC50 is 5.36 against COX-1 [1]; 4.77 on COX-1 [2] (unit inferred); 6.92 on COX-2 [3]; 7.70 on COX-2 [4]; 6.35 against COX-1 [5]. It took a dose of 3 mg/kg to reach the 50% effect level in the assay on Rat Paw edema (ED50).
